We go through one compound from US20050282755A1, “Compositions having antimicrobial activity and uses thereof” (priority 2004, published 2005).

Molecules are shown by their SMILES. pIC50: −log10 of the molar value. Values after ≈ are worked out from the molar mass of the structure shown. Bounds are passed on as bounds.

Assay [1] relates to E. coli K12 55099 (protease neg.). The following applies: 3 log or greater reduction in bacterial growth over 16 hours.
The subject of assay [2] is E. coli K12 TOP10. Particulars: 3 log or greater reduction in bacterial growth over 16 hours.
The test system of assay [3] is Jurkat cells. Type of assay: cell-based. The following applies: 16 h. The method, then: Toxicity of peptide compositions for mammalian cells was determined by using a metabolic viability assay. For this assay 4×10^5 HeLa cells were seeded per well into a microwell plate (50 microliters volume). Jurkat cells also were utilized in separate experiments. The cells were incubated for 16 hours at 37° C. under mammalian cell culture conditions. Two fold serial dilutions for each peptide were prepared and added to the cells (final volume 100 microliters) and incubated for 16 hours at 37° C. For each dilution series control wells containing cells without peptide were included. The metabolic activity and viability of the cells were determined by using a commercially available assay (CellTiter96 assay, Promega Corp.). According to manufacturer's protocol 20 microliters of CellTiter reagent was added to each well and incubated at 37° C. for 1-4 hours. The CellTiter assay is a commercial version of the MTT assay, which measures the conversion of a tetrazolium […] into a colored formazan salt in metabolically active cells. The formation of the formazan product can be measured at 470 nm and is generally accepted as a measure of cellular viability. The cells were incubated at 37° C. and monitored for color development. The conversion of CellTiter reagent was measured at 470 nm using a Versamax plate reader (Molecular Devices). The viability of peptide treated cells is expressed as IC50 (i.e., concentration that leads to a 50% reduction of viability relative to the untreated control). Table 7A reports IC50 values for HeLa cells cultured in OptiMEM or 10% FBS when contacted with peptide compositions from Table 3, and Table 7B reports IC50 values for HeLa cells or Jurkat cells contacted with peptide compositions from Table 3.

Turning to `CSCC[C@@H](NC(=O)[C@@H](Cc1ccccc1)NC(=O)[C@@H](CC(N)=O)NC(=O)[C@@H](CCCNC(=N)N)NC(=O)[C@@H](CO)NC(=O)[C@@H](Cc1c[nH]c2ccccc12)NC(=O)[C@@H](CC(=O)O)NC(=O)[C@@H](CCCNC(=N)N)NC(=O)[C@@H](Cc1c[nH]c2ccccc12)NC(=O)[C@@H](CCCNC(=N)N)NC(=O)[C@@H](CO)NC(=O)[C@@H](CCCNC(=N)N)NC(=O)CNC(=O)[C@H](NC(=O)[C@@H](CCCNC(=N)N)NC(=O)[C@@H](CO)NC(=O)[C@H](NC(=O)[C@@H](CCCNC(=N)N)NC(=O)[C@H](NC(C)=O)[C@H](C)O)C(C)C)[C@H](C)O)C(=O)N[C@H](CCCNC(=N)N)C(=O)N[C@H](C)C(=O)N[C@H](C)C(N)=O` [Peptide 30, Ac-trvsrtgrsrwrdwsrnfmraa-NH2], in assay [1], the “Minimum inhibitory concentration (MIC) E. coli 55099” value worked out at 2 µM (≈ 5.59 µg/mL). Besides, the “Minimum inhibitory concentration (MIC) E. coli Top10” value in assay [2] stood at 4 µM (≈ 11.2 µg/mL). Further, the pIC50 (in general, the negative decadic logarithm of the IC50, by convention in mol/L) in assay [3] is under 4.00.
